Results reported in ChEMBL document CHEMBL1201862, “PubChem BioAssay data set” (2004).
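Results reflect a 48-hour exposure of cells in 96-well plates to compound at five concentrations. GI50 marks 50% less growth.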 Calls of active or inactive are those of the source. No stated cut-off is given here; in the data, active = GI50 up to about 1.1 µM and inactive = higher.

Experiments:
Assay in all cases: DTP human tumour cell line panel, 48 h
TK-10 = test system: TK-10
DMS-114 = test system: DMS-114
SF-539 = test system: SF-539
DLD-1 = test system: DLD-1
SF-268 = test system: SF-268
UACC-257 = test system: UACC-257
SK-MEL-2 = test system: SK-MEL-2
NCI-H522 = test system: NCI-H522
RXF 631 = test system: RXF 631
SF-295 = test system: SF-295
HOP-92 = test system: HOP-92
LXFL 529 = test system: LXFL 529
M14 = test system: M14
OVCAR-4 = test system: OVCAR-4
OVCAR-5 = test system: OVCAR-5
NCI-H460 = test system: NCI-H460
COLO 205 = test system: COLO 205
786-0 = test system: 786-0
ACHN = test system: ACHN
HOP-18 = test system: HOP-18
SN12C = test system: SN12C
OVCAR-3 = test system: OVCAR-3
KM-20L2 = test system: KM-20L2
LOX IMVI = test system: LOX IMVI
HCT-116 = test system: HCT-116
A549 = test system: A549
EKVX = test system: EKVX
DMS-273 = test system: DMS-273
SNB-75 = test system: SNB-75
U-251 = test system: U-251
KM12 = test system: KM12
HT-29 = test system: HT-29
OVCAR-8 = test system: OVCAR-8
UO-31 = test system: UO-31
UACC-62 = test system: UACC-62
IGROV-1 = test system: IGROV-1
SK-OV-3 = test system: SK-OV-3
NCI-H226 = test system: NCI-H226
HCT-15 = test system: HCT-15
HOP-62 = test system: HOP-62
M19-MEL = test system: M19-MEL
SK-MEL-5 = test system: SK-MEL-5
NCI-H23 = test system: NCI-H23
SW-620 = test system: SW-620
A498 = test system: A498
SNB-78 = test system: SNB-78
Malme-3M = test system: Malme-3M
HCC 2998 = test system: HCC 2998
SK-MEL-28 = test system: SK-MEL-28
MOLT-4 = test system: MOLT-4
SNB-19 = test system: SNB-19
CAKI-1 = test system: CAKI-1
RPMI-8226 = test system: RPMI-8226
HL-60 = test system: HL-60
K562 = test system: K562
CCRF-CEM = test system: CCRF-CEM
RXF 393 = test system: RXF 393
SR = test system: SR

Cc1cccc(C(C)(C)C)c1NC(=O)C(=O)Cc1nc2ccccc2s1
GI50 (TK-10): > 100 µM (inactive) | GI50 (DMS-114): > 100 µM (inactive) | GI50 (SF-539): > 100 µM (inactive) | GI50 (DLD-1): > 100 µM (inactive) | GI50 (SF-268): > 100 µM (inactive) | GI50 (UACC-257): > 100 µM (inactive) | GI50 (SK-MEL-2): > 100 µM (inactive) | GI50 (NCI-H522): > 100 µM (inactive) | GI50 (RXF 631): > 100 µM (inactive) | GI50 (SF-295): > 100 µM (inactive) | GI50 (HOP-92): > 100 µM (inactive) | GI50 (LXFL 529): > 100 µM (inactive) | GI50 (M14): > 100 µM (inactive) | GI50 (OVCAR-4): > 100 µM (inactive) | GI50 (OVCAR-5): > 100 µM (inactive) | GI50 (NCI-H460): > 100 µM (inactive) | GI50 (COLO 205): > 100 µM (inactive) | GI50 (786-0): > 100 µM (inactive) | GI50 (ACHN): > 100 µM (inactive) | GI50 (HOP-18): > 100 µM (inactive) | GI50 (SN12C): > 100 µM (inactive) | GI50 (OVCAR-3): > 100 µM (inactive) | GI50 (KM-20L2): > 100 µM (inactive) | GI50 (LOX IMVI): > 100 µM (inactive) | GI50 (HCT-116): > 100 µM (inactive) | GI50 (A549): > 100 µM (inactive) | GI50 (EKVX): 27.4 µM (inactive) | GI50 (DMS-273): > 100 µM (inactive) | GI50 (SNB-75): > 100 µM (inactive) | GI50 (U-251): > 100 µM (inactive) | GI50 (KM12): > 100 µM (inactive) | GI50 (HT-29): > 100 µM (inactive) | GI50 (OVCAR-8): > 100 µM (inactive) | GI50 (UO-31): > 100 µM (inactive) | GI50 (UACC-62): > 100 µM (inactive) | GI50 (IGROV-1): > 100 µM (inactive) | GI50 (SK-OV-3): > 100 µM (inactive) | GI50 (NCI-H226): > 100 µM (inactive) | GI50 (HCT-15): > 100 µM | GI50 (HOP-62): > 100 µM (inactive) | GI50 (M19-MEL): > 100 µM (inactive) | GI50 (SK-MEL-5): > 100 µM (inactive) | GI50 (NCI-H23): > 100 µM (inactive) | GI50 (SW-620): > 100 µM (inactive) | GI50 (A498): > 100 µM (inactive) | GI50 (SNB-78): > 100 µM (inactive) | GI50 (Malme-3M): > 100 µM (inactive) | GI50 (HCC 2998): > 100 µM (inactive) | GI50 (SK-MEL-28): > 100 µM (inactive) | GI50 (MOLT-4): > 100 µM (inactive) | GI50 (SNB-19): > 100 µM (inactive) | GI50 (CAKI-1): > 100 µM (inactive) | GI50 (RPMI-8226): > 100 µM (inactive) | GI50 (HL-60): > 100 µM (inactive) | GI50 (K562): > 100 µM (inactive)

NC1=C2C(Br)=CN([C@@H]3O[C@H](CO)[C@@H](O)[C@@H]3O)C2C(=O)N=N1 (stereo partly drawn)
GI50 (TK-10): 15.4 µM (inactive) | GI50 (DMS-114): 4.94 µM (inactive) | GI50 (SF-539): 5.32 µM (inactive) | GI50 (DLD-1): 0.76 µM (active) | GI50 (SF-268): 9.51 µM (inactive) | GI50 (UACC-257): 22.4 µM (inactive) | GI50 (SK-MEL-2): 14.8 µM (inactive) | GI50 (NCI-H522): 6.05 µM (inactive) | GI50 (RXF 631): 0.516 µM (active) | GI50 (SF-295): 15.8 µM (inactive) | GI50 (HOP-92): 2.51 µM (inactive) | GI50 (LXFL 529): 8.47 µM (inactive) | GI50 (M14): 1.27 µM (inactive) | GI50 (OVCAR-4): 2.44 µM (inactive) | GI50 (OVCAR-5): 2.28 µM (inactive) | GI50 (CCRF-CEM): 0.526 µM (active) | GI50 (NCI-H460): 1.49 µM (inactive) | GI50 (COLO 205): 7.93 µM (inactive) | GI50 (786-0): 12.4 µM (inactive) | GI50 (ACHN): 9.04 µM (inactive) | GI50 (RXF 393): 2.28 µM (inactive) | GI50 (HOP-18): 5.68 µM (inactive) | GI50 (SN12C): 1.64 µM (inactive) | GI50 (OVCAR-3): 0.811 µM (active) | GI50 (KM-20L2): 22.2 µM (inactive) | GI50 (LOX IMVI): 1.03 µM (active) | GI50 (HCT-116): 1.82 µM (inactive) | GI50 (A549): 2.67 µM (inactive) | GI50 (EKVX): 5.93 µM (inactive) | GI50 (DMS-273): 1.97 µM (inactive) | GI50 (SNB-75): 3.78 µM (inactive) | GI50 (U-251): 8.79 µM (inactive) | GI50 (KM12): 7.38 µM (inactive) | GI50 (HT-29): 2.42 µM (inactive) | GI50 (OVCAR-8): 0.577 µM (active) | GI50 (UO-31): 4.85 µM (inactive) | GI50 (UACC-62): 16.6 µM (inactive) | GI50 (IGROV-1): 3.99 µM (inactive) | GI50 (SK-OV-3): 30.5 µM (inactive) | GI50 (NCI-H226): 18.2 µM (inactive) | GI50 (HCT-15): 1.25 µM | GI50 (HOP-62): 15.1 µM (inactive) | GI50 (M19-MEL): 15.5 µM (inactive) | GI50 (SK-MEL-5): 11.3 µM (inactive) | GI50 (SR): 0.475 µM (active) | GI50 (NCI-H23): 5.58 µM (inactive) | GI50 (SW-620): 1.15 µM (inactive) | GI50 (A498): 40.4 µM (inactive) | GI50 (SNB-78): 30.9 µM (inactive) | GI50 (Malme-3M): 6.89 µM (inactive) | GI50 (HCC 2998): 5.02 µM (inactive) | GI50 (SK-MEL-28): 7.73 µM (inactive) | GI50 (MOLT-4): 0.395 µM (active) | GI50 (SNB-19): 43.1 µM (inactive) | GI50 (CAKI-1): 0.396 µM (active) | GI50 (RPMI-8226): 1.94 µM (inactive) | GI50 (HL-60): 0.223 µM (active) | GI50 (K562): 6.67 µM (inactive)
